Earlier results, collected in US20030100493A1, “Sublingual use of inhibitors in the biosynthesis of cholesterol” (priority 2001, published 2003).

Legend:
[1] = in vivo
[2] = system: cholesterol synthesis; details: compared with the other statins
[3] = sublingual; coronary patient

Compound | passage of the blood brain barrier [1] | also measured
CC(C)n1c(/C=C/C(O)CC(O)CC(=O)O)c(-c2ccc(F)cc2)c2ccccc21 (stereo not shown) [Fluvastatin] | do not pass the blood brain barrier | 
CC(C)c1nc(N(C)S(C)(=O)=O)nc(-c2ccc(F)cc2)c1/C=C/[C@@H](O)C[C@@H](O)CC(=O)O [Rosuvastatin] |  | potency as an inhibitor of cholesterol synthesis [2]: significantly higher potency
O=[N+]([O-])OCC(CO[N+](=O)[O-])O[N+](=O)[O-] [Nitroglycerin] |  | duration of effect (short lasting effect) [3]: five to ten
CC[C@H](C)C(=O)O[C@H]1C[C@H](O)C=C2C=C[C@H](C)[C@H](CC[C@@H](O)C[C@@H](O)CC(=O)O)[C@H]21 [Pravastatin] | do not pass the blood brain barrier | 
